The source made the active and inactive calls. The calls are words filed in the database; no cut-off is given here.

Test [1] is filed under the species Mus musculus. As to the kind of experiment: Compound was evaluated for analgesic activity using mouse hotplate test. The format is functional.
The subject of test [2] is Mus musculus. Nature of the test: Compound was evaluated for analgesic activity using mouse hotplate test, at the dose 20 mg/kg; Inactive. The format is functional, organism-based. Also noted: dose 20 mg/kg.
Test [3] relates to Mus musculus. Nature of the test: Compound was evaluated for analgesic activity using mouse hotplate test, at the dose 50 mg/kg; Inactive. The format is functional, organism-based. Also noted: dose 50 mg/kg.
In test [4] the test system is Mus musculus. Nature of the test: Compound was evaluated for analgesic activity using mouse hotplate test at 7.1-13.8 mg/kg dose. The format is functional.

Consider `CN1CCC2(C(C)(C)C)CC1Cc1ccccc12` (stereo not given), for which the ED50 in test [1] is 14.1 mg/kg.

`CN1CC[C@]23c4c5ccc(O)c4O[C@H]2[C@@H](O)C=C[C@H]3[C@H]1C5.CN1CC[C@]23c4c5ccc(O)c4O[C@H]2[C@@H](O)C=C[C@H]3[C@H]1C5.O=S(=O)(O)O`: the ED50 in test [1] was found to be 1.2 mg/kg.

Take `CC(C)(C)C12CCN(CC3CC3)C(Cc3ccccc31)C2` (stereo not given): the ED50 entry in test [2] is “inactive”.

On to `C=CCN1CCC2(C(C)(C)C)CC1Cc1ccccc12` (stereo not given), for which, in test [3], the ED50 entry was “inactive”.

The compound `CC(C)(C)C12CCN(CCc3ccccc3)C(Cc3ccccc31)C2` (stereo not given) came in with an ED50 in test [4] of 9.9 mg/kg.

The ED50 is the dose at which the effect has come halfway, by size or by number of responders.

Source of the values: ChEMBL document CHEMBL1123444, “Analgesic actions of 3-substituted 6-tert-butyl-1,2,3,4,5,6-hexahydro-2,6-methano-3-benzazocines” (1986).
